These results are taken from patent US7728012B2, “Carboxamide compounds and their use as calpain inhibitors” (Abbott GmbH & Co. KG, priority 2006, dated 2010).

What all share (assay type): biochemical
Experiment [1] concerns the target T1, cathepsin L isolated from human liver (Homo sapiens, UniProt P07711).
T1 construct: cathepsin L—isolated from human liver; purchased Calbiochem 219402; host or cells: human liver (tissue isolate)
In words: Cathepsin L kinetic fluorescence enzyme inhibition assay. Particulars: selectivity ratio versus calpain I. How it is done: (§1) The following solutions and buffers were employed: • HBS (for 40 ml): 800 μl M HEPES; 2.16 ml 100 mM KCl; 4.8 ml 1M NaCl; 3.59 ml 5% glucose; 60 μl μM MgSO4; 400 μl 100 mM Na pyruvate, 28.19 ml water; pH 7.2-7.5. • lysis buffer (for 20 ml): 400 μl M Tris pH 8.2; 2.74 ml 1M NaCl; 520 μl 0.5M EDTA; 2 ml 10% triton X-100; 0.8 ml (=1:25) CompletePlus (1 tablet/2 ml H2O); 200 μl 100 mM Pefabloc; 13.34 ml water, pH 8.2. • TBST (10×) (for 1 l): 100 mM Tris (12.1 g); 1.5M NaCl (87 g); 1% Tween 20 (10 g), adjusted to pH 8. I Enzyme Inhibition In Vitro: • Testing for blockade of the corresponding enzymic activities was carried out by means of kinetic fluorescence assays (excitation 390 nm, emission 460 nm). • Apparent Ki values were calculated from the experimentally determined IC50 values by the Cheng-Prussoff relation assuming a reversible competitive enzyme inhibition. The Km values of the substrates used under the assay conditions indicated above were: 90 μM (Z-Phe-Arg-AMC, cathepsin B), 10 μM (Z-Gly-Pro-Arg-AMC, cathepsin K), 2 μM (Z-Phe-Arg-AMC, cathepsin L), and 30 μM (Z-Val-Val-Arg-AMC, cathepsin S). • The indicated Ki values are averages of the inhibition constants calculated on the basis of 2 to 4 independent dose-effect plots.
(§2) The following assays were used: • 1. Calpain I: • 20 nM calpain-I—isolated from human erythrocytes (Calbiochem #208713), 100 μM Suc-Leu-Tyr-AMC (Bachem #1-1355) as substrate in buffer with 62 mM imidazole, 0.3 mM CaCl2, 0.10% CHAPS, 0.05% BSA, 1 mM DTT at pH 7.3 and room temperature. • 2. Cathepsin B: • 0.25 nM cathepsin B—isolated from human liver (Calbiochem #219362), 100 μM Z-Phe-Arg-AMC (Bachem #I-1160) as substrate 50 mM MES, 2 mM EDTA, 0.05% Brij 35, 2.5 mM L-cysteine, pH 6.0, room temperature. • 3. Cathepsin K: • 3 nM cathepsin K—activated from recombinant human procathepsin K from E. coli (Calbiochem #342001), 10 μM Z-Gly-Pro-Arg-AMC (Biomol #P-142) as substrate in 50 mM MES, 2 mM EDTA, 0.05% Brij 35, 2.5 mM L-cysteine, pH 6.0, room temperature. • 4. Cathepsin L: • 1 nM cathepsin L—isolated from human liver (Calbiochem #219402), 2 μM Z-Phe-Arg-AMC (Bachem #1-1160) as substrate in 50 mM MES, 2 mM EDTA, 0.05% Brij 35, 2.5 mM L-cysteine, pH 6.0, room temperature. • 5. Cathepsin S: • 0.5 nM recombinant human cathepsin S from E. coli (Calbiochem #219343), 20 μM Z-Val-Val-Arg-AMC (Bachem #1-1540) as substrate in 50 mM MES, 2 mM EDTA, 0.05% Brij 35, 2.5 mM L-cysteine, pH 6.0, room temperature. • The results of the in vitro determination are indicated in Table 1. The following abbreviations are used in Table 1: • The “Calpain activity” column, ++ stands for a calpain Ki (Ki(calpain)) of ≦40 nM and + means: 40 nM<Ki(Calpain)≦100 nM. • The “Sel. cat. B” column indicates the Ki(cathepsin B)/Ki(calpain) ratio. In this connection, ++ means a Ki(cathepsin B)/Ki(calpain) ratio of ≧30 and + means 10≦Ki(cathepsin B)/Ki(calpain)<30. • The “Sel. cat. K” column indicates the Ki(cathepsin K)/Ki(calpain) ratio. In this connection, ++ means a Ki(cathepsin K)/Ki(calpain) ratio of ≧30 and + means 10≦Ki(cathepsin K)/Ki(calpain)<30. • The “Sel. cat. L” column indicates the Ki(cathepsin L)/Ki(calpain) ratio. In this connection, ++ means a Ki(cathepsin L)/Ki(calpain) ratio of ≧50 and + means 30≦Ki(cathepsin L)/Ki(calpain)<50. • The “Sel. cat. S” column indicates the Ki(cathepsin S)/Ki(calpain) ratio. In this connection, ++ means a Ki(cathepsin S)/Ki(calpain) ratio of ≧100 and + means 50≦Ki(cathepsin S)/Ki(calpain)<100.

For experiment [2], the target named is T2, recombinant human cathepsin S (Homo sapiens, UniProt P25774).
T2 construct: purchased Calbiochem 219343; host or cells: E. coli
Kind of experiment: Cathepsin S kinetic fluorescence enzyme inhibition assay. Particulars: selectivity ratio versus calpain I. The procedure:
as §1, §2

Experiment [3] deals with T3, calpain-I isolated from human erythrocytes (Homo sapiens, UniProt P07384).
T3 construct: calpain-I—isolated from human erythrocytes; purchased Calbiochem 208713; host or cells: human erythrocytes (tissue isolate)
T3 sequence (P07384 1-714): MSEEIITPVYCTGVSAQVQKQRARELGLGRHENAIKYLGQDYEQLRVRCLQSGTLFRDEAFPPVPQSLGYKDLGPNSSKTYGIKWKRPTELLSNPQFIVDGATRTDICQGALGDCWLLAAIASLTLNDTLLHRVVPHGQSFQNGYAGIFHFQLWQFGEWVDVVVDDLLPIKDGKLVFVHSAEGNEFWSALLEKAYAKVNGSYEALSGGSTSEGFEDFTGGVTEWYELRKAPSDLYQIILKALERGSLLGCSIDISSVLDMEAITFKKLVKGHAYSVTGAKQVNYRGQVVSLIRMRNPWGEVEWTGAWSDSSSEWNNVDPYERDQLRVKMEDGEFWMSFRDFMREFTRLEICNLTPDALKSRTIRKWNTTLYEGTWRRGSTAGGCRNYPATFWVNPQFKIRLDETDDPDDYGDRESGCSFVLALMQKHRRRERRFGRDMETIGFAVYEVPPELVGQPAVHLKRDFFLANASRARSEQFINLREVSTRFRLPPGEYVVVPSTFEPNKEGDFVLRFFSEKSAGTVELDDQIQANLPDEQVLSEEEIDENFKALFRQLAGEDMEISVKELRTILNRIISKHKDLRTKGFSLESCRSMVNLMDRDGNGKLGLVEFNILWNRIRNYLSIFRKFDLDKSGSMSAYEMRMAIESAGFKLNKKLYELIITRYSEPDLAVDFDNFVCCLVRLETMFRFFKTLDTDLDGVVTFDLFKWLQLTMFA
T3 sequence (P04632 1-268 partner): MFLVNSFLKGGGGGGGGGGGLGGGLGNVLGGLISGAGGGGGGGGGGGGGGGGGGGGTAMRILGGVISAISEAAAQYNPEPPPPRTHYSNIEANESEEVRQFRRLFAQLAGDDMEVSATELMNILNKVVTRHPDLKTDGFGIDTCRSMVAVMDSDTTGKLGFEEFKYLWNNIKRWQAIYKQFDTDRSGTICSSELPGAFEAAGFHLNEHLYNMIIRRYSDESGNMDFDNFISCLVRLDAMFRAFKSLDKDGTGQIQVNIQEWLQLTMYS
Kind of experiment: Calpain I kinetic fluorescence enzyme inhibition assay. Particulars: apparent Ki from IC50 by Cheng-Prussoff; average of 2 to 4 dose-effect plots. The procedure: as §1, §2

T2 sequence (P25774 115-331): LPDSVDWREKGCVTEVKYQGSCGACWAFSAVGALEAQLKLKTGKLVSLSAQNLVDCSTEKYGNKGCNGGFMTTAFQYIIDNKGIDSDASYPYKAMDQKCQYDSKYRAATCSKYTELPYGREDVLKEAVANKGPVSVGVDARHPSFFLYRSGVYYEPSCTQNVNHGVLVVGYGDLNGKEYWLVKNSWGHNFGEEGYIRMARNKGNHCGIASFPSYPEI
T1 sequence (P07711 114-333): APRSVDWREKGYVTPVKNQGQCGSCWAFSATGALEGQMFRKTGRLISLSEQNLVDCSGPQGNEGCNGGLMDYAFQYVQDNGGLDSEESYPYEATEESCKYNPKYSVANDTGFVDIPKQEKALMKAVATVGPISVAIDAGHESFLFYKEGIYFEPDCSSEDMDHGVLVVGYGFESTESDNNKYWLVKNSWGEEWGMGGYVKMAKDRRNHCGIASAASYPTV

Turning to `NC(=O)C(=O)C(Cc1ccccc1)NC(=O)c1cccnc1-n1cc(COc2ccccc2)c(-c2ccc(F)cc2)n1` (stereo not shown) [Example 179, N-[3-Amino-2,3-dioxo-1-(phenylmethyl)propyl]-2-{3-(4-fluorophenyl)-4-[(phenyloxy)methyl]-1H-pyrazol-1-yl}pyridine-3-carboxamide], the “Sel cat. L (Ki(cathepsin L)/Ki(calpain) ratio)” value in experiment [1] is given as “+ (30≦Ki(cathepsin L)/Ki(calpain)<50)”. For the same molecule, in experiment [2], the “Sel cat. S (Ki(cathepsin S)/Ki(calpain) ratio)” value is on record as “++ (Ki(cathepsin S)/Ki(calpain) ratio of ≧100)”.

`CCCCC(NC(=O)c1cccnc1-n1cnc(-c2ccc(C(F)(F)F)cc2)c1)C(=O)C(N)=O.Cl` (stereo not shown) [Example 17, N-{1-[Amino(oxo)acetyl]pentyl}-2-{4-[4-(trifluoromethyl)phenyl]-1H-imidazol-1-yl}nicotinamide hydrochloride]: in experiment [3], the Ki was no more than 40 nM. The “Sel cat. L (Ki(cathepsin L)/Ki(calpain) ratio)” value in experiment [1] is “++ (Ki(cathepsin L)/Ki(calpain) ratio of ≧50)”. The “Sel cat. S (Ki(cathepsin S)/Ki(calpain) ratio)” value in experiment [2] is listed as “+ (50≦Ki(cathepsin S)/Ki(calpain)<100)”.

In the case of `NC(=O)C(=O)C(Cc1ccccc1)NC(=O)c1cccnc1-n1ccc(-c2ccc(Cl)cc2)n1` (stereo not shown) [Example 39, N-(3-Amino-1-benzyl-2,3-dioxopropyl)-2-[3-(4-chlorophenyl)-1H-pyrazol-1-yl]nicotinamide], the Ki in experiment [3] is 40 to 100 nM. The “Sel cat. L (Ki(cathepsin L)/Ki(calpain) ratio)” value in experiment [1] is on record as “++ (Ki(cathepsin L)/Ki(calpain) ratio of ≧50)”. Besides, the “Sel cat. S (Ki(cathepsin S)/Ki(calpain) ratio)” value in experiment [2] was “++ (Ki(cathepsin S)/Ki(calpain) ratio of ≧100)”.

Turning to `COc1ccc(-c2cn(-c3ncccc3C(=O)NC(Cc3ccccc3)C(=O)C(N)=O)cn2)cc1` (stereo not shown) [Example 13, N-(3-Amino-1-benzyl-2,3-dioxopropyl)-2-[4-(4-methoxyphenyl)-1H-imidazol-1-yl]nicotinamide], the Ki in experiment [3] was in the range of 40 to 100 nM. Further, the “Sel cat. L (Ki(cathepsin L)/Ki(calpain) ratio)” value in experiment [1] is given as “++ (Ki(cathepsin L)/Ki(calpain) ratio of ≧50)”. Further, in experiment [2], the “Sel cat. S (Ki(cathepsin S)/Ki(calpain) ratio)” value was “+ (50≦Ki(cathepsin S)/Ki(calpain)<100)”.

Turning to `Cc1cn(-c2ncccc2C(=O)NC(Cc2ccccc2)C(=O)C(N)=O)nc1-c1ccccc1` (stereo not shown) [Example 86, N-[3-Amino-2,3-dioxo-1-(phenylmethyl)propyl]-2-(4-methyl-3-phenyl-1H-pyrazol-1-yl)pyridine-3-carboxamide], the Ki in experiment [3] is no more than 40 nM. Besides, in experiment [1], the “Sel cat. L (Ki(cathepsin L)/Ki(calpain) ratio)” value was “++ (Ki(cathepsin L)/Ki(calpain) ratio of ≧50)”.

Regarding `CCCCC(NC(=O)c1cccnc1-n1cnc(-c2ccc(N3CCOCC3)cc2)c1)C(=O)C(N)=O.Cl` (stereo not shown) [Example 15, N-{1-[Amino(oxo)acetyl]pentyl}-2-[4-(4-morpholin-4-ylphenyl)-1H-imidazol-1-yl]nicotinamide hydrochloride], in experiment [3], the Ki is no more than 40 nM. For the same molecule, the “Sel cat. L (Ki(cathepsin L)/Ki(calpain) ratio)” value in experiment [1] is on record as “++ (Ki(cathepsin L)/Ki(calpain) ratio of ≧50)”. The “Sel cat. S (Ki(cathepsin S)/Ki(calpain) ratio)” value in experiment [2] is reported as “+ (50≦Ki(cathepsin S)/Ki(calpain)<100)”.

For the molecule `Cl.NC(=O)C(=O)C(Cc1ccccc1)NC(=O)c1cccnc1-n1cnc(-c2ccc(C(F)(F)F)cc2)c1` (stereo not shown) [Example 18, N-(3-Amino-1-benzyl-2,3-dioxopropyl)-2-{4-[4-(trifluoromethyl)phenyl]-1H-imidazol-1-yl}nicotinamide hydrochloride], in experiment [3], the Ki was no more than 40 nM. Also, the “Sel cat. L (Ki(cathepsin L)/Ki(calpain) ratio)” value in experiment [1] is reported as “+ (30≦Ki(cathepsin L)/Ki(calpain)<50)”. For the same molecule, in experiment [2], the “Sel cat. S (Ki(cathepsin S)/Ki(calpain) ratio)” value is given as “++ (Ki(cathepsin S)/Ki(calpain) ratio of ≧100)”.

As to `CCCCC(NC(=O)c1cccnc1-n1ccc(-c2ccc(OC)cc2)n1)C(=O)C(N)=O` (stereo not shown) [Example 49, N-{1-[Amino(oxo)acetyl]pentyl}-2-[3-(4-methoxyphenyl)-1H-pyrazol-1-yl]nicotinamide], the Ki in experiment [3] is 40 to 100 nM. Besides, the “Sel cat. L (Ki(cathepsin L)/Ki(calpain) ratio)” value in experiment [1] is recorded as “+ (30≦Ki(cathepsin L)/Ki(calpain)<50)”. In addition, the “Sel cat. S (Ki(cathepsin S)/Ki(calpain) ratio)” value in experiment [2] is recorded as “++ (Ki(cathepsin S)/Ki(calpain) ratio of ≧100)”.

In the case of `CCCCC(NC(=O)c1cc(Cl)cnc1-n1cnc(-c2ccccc2)c1)C(=O)C(N)=O.Cl` (stereo not shown) [Example 24, N-{1-[Amino(oxo)acetyl]pentyl}-5-chloro-2-(4-phenyl-1H-imidazol-1-yl)nicotinamide hydrochloride], in experiment [3], the Ki was no more than 40 nM. Besides, the “Sel cat. L (Ki(cathepsin L)/Ki(calpain) ratio)” value in experiment [1] is “+ (30≦Ki(cathepsin L)/Ki(calpain)<50)”.

Take `COCc1cn(-c2ncccc2C(=O)NC(Cc2ccccc2)C(=O)C(N)=O)nc1-c1ccc(F)cc1` (stereo not shown) [Example 170, N-[3-Amino-2,3-dioxo-1-(phenylmethyl)propyl]-2-{3-(4-fluorophenyl)-4-[(methyloxy)methyl]-1H-pyrazol-1-yl}pyridine-3-carboxamide]: the Ki in experiment [3] fell in the range of 40 to 100 nM. Further, the “Sel cat. L (Ki(cathepsin L)/Ki(calpain) ratio)” value in experiment [1] is “+ (30≦Ki(cathepsin L)/Ki(calpain)<50)”.

For `CCCCC(NC(=O)c1cccnc1-n1cnc(-c2ccccc2)c1)C(=O)C(N)=O` (stereo not shown) [Example 2, N-{1-[Amino(oxo)acetyl]pentyl}-2-(4-phenyl-1H-imidazol-1-yl)nicotinamide], the Ki in experiment [3] is no more than 40 nM. Also, the “Sel cat. L (Ki(cathepsin L)/Ki(calpain) ratio)” value in experiment [1] is recorded as “++ (Ki(cathepsin L)/Ki(calpain) ratio of ≧50)”.
